Data on 28 compounds can be found in patent publication US8765728B2, “[1,5]-diazocin derivatives” (MelliTech, priority 2009, dated 2014).

Structures are written as SMILES.

The test relates to Min6 cell. The test is described as follows: Insulin secretion response of beta cell line to formula I compounds (insulin ELISA). Type of test: cell-based. The settings on record: rank according to % increase versus control at most effective dose. As to the method: The secretory responses of beta cell lines to glucose were tested as described in Merglen et al. Endocrinology, (2004) 145(2):667-78.
Briefly, after incubation with compounds from formula I or control vehicle, cells were maintained for 2 hours in glucose-free culture medium. The cells were then washed twice and preincubated for 30 minutes at 37° C. in glucose-free Krebs-Ringer bicarbonate HEPES buffer (KRBH: 135 mM NaCl, 3.6 mM KCl, 5 mM NaHCO3, 0.5 mM NaH2PO4, 0.5 mM MgCl2, 1.5 mM CaCl2, and 10 mM HEPES, pH 7.4). BSA (0.1%) was added as an insulin carrier. Cells were subsequently washed with glucose-free KRBH and then incubated for 30 minutes at 37° C. in KRBH containing different concentrations of glucose. The reaction was stopped by placing the plates on ice; supernatants were collected to determine insulin secretion and cells were used for intracellular insulin content following acid-ethanol extraction. Insulin was measured by ELISA (Linco) according to the manufacturer's instructions.
On to `COc1ccc2c(c1)CN(C1CC1)C(=O)CCN2CC(O)c1ccc(N2CCCC2)cc1` (stereo not shown) [Compound 28, 5-cyclopropyl-1-(2-hydroxy-2-(4-(pyrrolidin-1-yl)phenyl)ethyl)-8-methoxy-2,3,5,6-tetrahydrobenzo[b][1,5]diazocin-4(1H)-one], for which the “Insulin secretion (Min6 cell) Range 1 to 5” value (shortened to “Insulin secretion”) is given as 3 (3: 120-140% of control).

Take `COc1ccc2c(c1)CN(C1CC1)C(=O)CCN2CC(O)c1ccc2c(c1)OCCO2` (stereo not shown) [Compound 29, 5-cyclopropyl-1-(2-(2,3-dihydrobenzo[b][1,4]dioxin-6-yl)-2-hydroxyethyl)-8-methoxy-2,3,5,6-tetrahydrobenzo[b][1,5]diazocin-4(1H)-one]: the “Insulin secretion” value was 2 (2: 110-120% of control).

With `COc1cccc(C(O)CN2CCC(=O)N(C3CC3)Cc3cc(OC)ccc32)c1` (stereo not shown) [Compound 30, 5-cyclopropyl-1-(2-hydroxy-2-(3-methoxyphenyl)ethyl)-8-methoxy-2,3,5,6-tetrahydrobenzo[b][1,5]diazocin-4(1H)-one], the “Insulin secretion” value is 1 (1: 90-110% of control).

For the compound `COc1ccc2c(c1)CN(C1CC1)C(=O)CCN2CC(O)c1cccc(F)c1` (stereo not shown) [Compound 31, 5-cyclopropyl-1-(2-(3-fluorophenyl)-2-hydroxyethyl)-8-methoxy-2,3,5,6-tetrahydrobenzo[b][1,5]diazocin-4(1H)-one], the “Insulin secretion” value was 1 (1: 90-110% of control).

As to `COc1ccc(C(O)CN2CCC(=O)N(C3CC3)Cc3cc(OC)ccc32)cc1` (stereo not shown) [Compound 32, 5-cyclopropyl-1-(2-hydroxy-2-(4-methoxyphenyl)ethyl)-8-methoxy-2,3,5,6-tetrahydrobenzo[b][1,5]diazocin-4(1H)-one], the “Insulin secretion” value was 3 (3: 120-140% of control).

In the case of `COc1ccc2c(c1)CN(C1CC1)C(=O)CCN2CC(O)c1ccc(OC(F)(F)F)cc1` (stereo not shown) [Compound 33, 5-cyclopropyl-1-(2-hydroxy-2-(4-(trifluoromethoxy)phenyl)ethyl)-8-methoxy-2,3,5,6-tetrahydrobenzo[b][1,5]diazocin-4(1H)-one], the “Insulin secretion” value is reported as 2 (2: 110-120% of control).

For the compound `COc1ccc2c(c1)CN(C1CC1)C(=O)CCN2CC(O)c1ccc(F)c(F)c1` (stereo not shown) [Compound 34, 5-cyclopropyl-1-(2-(3,4-difluorophenyl)-2-hydroxyethyl)-8-methoxy-2,3,5,6-tetrahydrobenzo[b][1,5]diazocin-4(1H)-one], the “Insulin secretion” value is reported as 1 (1: 90-110% of control).

As to `O=C(CN1CCC(=O)N(C2CC2)Cc2cc(F)ccc21)c1ccccc1` [Compound 35, 5-cyclopropyl-8-fluoro-1-(2-oxo-2-phenylethyl)-2,3,5,6-tetrahydrobenzo[b][1,5]diazocin-4(1H)-one], the “Insulin secretion” value was 1 (1: 90-110% of control).

Consider `COc1ccccc1C(=O)CN1CCC(=O)N(C2CC2)Cc2cc(F)ccc21` [Compound 36, 5-cyclopropyl-8-fluoro-1-(2-(2-methoxyphenyl)-2-oxoethyl)-2,3,5,6-tetrahydrobenzo[b][1,5]diazocin-4(1H)-one], for which the “Insulin secretion” value is reported as 2 (2: 110-120% of control).

As for `COc1cccc(C(=O)CN2CCC(=O)N(C3CC3)Cc3cc(F)ccc32)c1` [Compound 37, 5-cyclopropyl-8-fluoro-1-(2-(3-methoxyphenyl)-2-oxoethyl)-2,3,5,6-tetrahydrobenzo[b][1,5]diazocin-4(1H)-one], the “Insulin secretion” value is on record as 4 (4: 140-170% of control).

Consider `COc1ccc(C(=O)CN2CCC(=O)N(C3CC3)Cc3cc(F)ccc32)cc1` [Compound 38, 5-cyclopropyl-8-fluoro-1-(2-(4-methoxyphenyl)-2-oxoethyl)-2,3,5,6-tetrahydrobenzo[b][1,5]diazocin-4(1H)-one], for which the “Insulin secretion” value is recorded as 1 (1: 90-110% of control).

For the compound `COc1ccc(OC)c(C(=O)CN2CCC(=O)N(C3CC3)Cc3cc(F)ccc32)c1` [Compound 39, 5-cyclopropyl-1-(2-(2,5-dimethoxyphenyl)-2-oxoethyl)-8-fluoro-2,3,5,6-tetrahydrobenzo[b][1,5]diazocin-4(1H)-one], the “Insulin secretion” value is reported as 3 (3: 120-140% of control).

`O=C(CN1CCC(=O)N(C2CC2)Cc2cc(F)ccc21)c1ccc(F)cc1` [Compound 40, 5-cyclopropyl-8-fluoro-1-(2-(4-fluorophenyl)-2-oxoethyl)-2,3,5,6-tetrahydrobenzo[b][1,5]diazocin-4(1H)-one]: the “Insulin secretion” value is 3 (3: 120-140% of control).

In the case of `O=C(CN1CCC(=O)N(C2CC2)Cc2cc(F)ccc21)c1cccc(F)c1` [Compound 41, 5-cyclopropyl-8-fluoro-1-(2-(3-fluorophenyl)-2-oxoethyl)-2,3,5,6-tetrahydrobenzo[b][1,5]diazocin-4(1H)-one], the “Insulin secretion” value is 3 (3: 120-140% of control).

`O=C(CN1CCC(=O)N(C2CC2)Cc2cc(F)ccc21)c1ccc(OC(F)(F)F)cc1` [Compound 42, 5-cyclopropyl-8-fluoro-1-(2-oxo-2-(4-(trifluoromethoxy)phenyl)ethyl)-2,3,5,6-tetrahydrobenzo[b][1,5]diazocin-4(1H)-one]: the “Insulin secretion” value is 1 (1: 90-110% of control).

Turning to `O=C(CN1CCC(=O)N(C2CC2)Cc2cc(F)ccc21)c1ccc(F)c(F)c1` [Compound 43, 5-cyclopropyl-1-(2-(3,4-difluorophenyl)-2-oxoethyl)-8-fluoro-2,3,5,6-tetrahydrobenzo[b][1,5]diazocin-4(1H)-one], the “Insulin secretion” value is listed as 2 (2: 110-120% of control).

Take `O=C(CN1CCC(=O)N(C2CC2)Cc2cc(F)ccc21)c1ccc(Cl)cc1` [Compound 44, 1-(2-(4-chlorophenyl)-2-oxoethyl)-5-cyclopropyl-8-fluoro-2,3,5,6-tetrahydrobenzo[b][1,5]diazocin-4(1H)-one]: the “Insulin secretion” value is listed as 1 (1: 90-110% of control).

Turning to `COc1ccc(OC)c(C(O)CN2CCC(=O)N(C3CC3)Cc3cc(F)ccc32)c1` (stereo not shown) [Compound 45, 5-cyclopropyl-1-(2-(2,5-dimethoxyphenyl)-2-hydroxyethyl)-8-fluoro-2,3,5,6-tetrahydrobenzo[b][1,5]diazocin-4(1H)-one], the “Insulin secretion” value is listed as 1 (1: 90-110% of control).

On to `O=C1CCN(CC(O)c2ccc(F)cc2)c2ccc(F)cc2CN1C1CC1` (stereo not shown) [Compound 46, 5-cyclopropyl-8-fluoro-1-(2-(4-fluorophenyl)-2-hydroxyethyl)-2,3,5,6-tetrahydrobenzo[b][1,5]diazocin-4(1H)-one], for which the “Insulin secretion” value was 2 (2: 110-120% of control).

As for `O=C1CCN(CC(O)c2cccc(F)c2)c2ccc(F)cc2CN1C1CC1` (stereo not shown) [Compound 47, 5-cyclopropyl-8-fluoro-1-(2-(3-fluorophenyl)-2-hydroxyethyl)-2,3,5,6-tetrahydrobenzo[b][1,5]diazocin-4(1H)-one], the “Insulin secretion” value is recorded as 2 (2: 110-120% of control).

Consider `O=C1CCN(CC(O)c2ccc(OC(F)(F)F)cc2)c2ccc(F)cc2CN1C1CC1` (stereo not shown) [Compound 48, 5-cyclopropyl-8-fluoro-1-(2-hydroxy-2-(4-(trifluoromethoxy)phenyl)ethyl)-2,3,5,6-tetrahydrobenzo[b][1,5]diazocin-4(1H)-one], for which the “Insulin secretion” value is 2 (2: 110-120% of control).

As to `O=C1CCN(CC(O)c2ccc(F)c(F)c2)c2ccc(F)cc2CN1C1CC1` (stereo not shown) [Compound 49, 5-cyclopropyl-1-(2-(3,4-difluorophenyl)-2-hydroxyethyl)-8-fluoro-2,3,5,6-tetrahydrobenzo[b][1,5]diazocin-4(1H)-one], the “Insulin secretion” value was 5 (5: >170% of control).

As for `O=C1CCN(CC(O)c2ccc(Cl)cc2)c2ccc(F)cc2CN1C1CC1` (stereo not shown) [Compound 50, 1-(2-(4-chlorophenyl)-2-hydroxyethyl)-5-cyclopropyl-8-fluoro-2,3,5,6-tetrahydrobenzo[b][1,5]diazocin-4(1H)-one], the “Insulin secretion” value is 2 (2: 110-120% of control).

As for `COc1ccc(OCC(O)CN2CCC(=O)N(C3CC3)Cc3cc(OC)ccc32)cc1` (stereo not shown) [Compound 51, 5-cyclopropyl-1-(2-hydroxy-3-(4-methoxyphenoxy)propyl)-8-methoxy-2,3,5,6-tetrahydrobenzo[b][1,5]diazocin-4(1H)-one], the “Insulin secretion” value is reported as 2 (2: 110-120% of control).

On to `O=C1CCN(CC(O)COc2ccccc2)c2ccc(F)cc2CN1C1CC1` (stereo not shown) [Compound 52, 5-cyclopropyl-8-fluoro-1-(2-hydroxy-3-phenoxypropyl)-2,3,5,6-tetrahydrobenzo[b][1,5]diazocin-4(1H)-one], for which the “Insulin secretion” value is given as 1 (1: 90-110% of control).

`COc1ccc(OCC(O)CN2CCC(=O)N(C3CC3)Cc3cc(F)ccc32)cc1` (stereo not shown) [Compound 53, 5-cyclopropyl-8-fluoro-1-(2-hydroxy-3-(4-methoxyphenoxy)propyl)-2,3,5,6-tetrahydrobenzo[b][1,5]diazocin-4(1H)-one]: the “Insulin secretion” value is on record as 1 (1: 90-110% of control).

`COc1ccc2c(c1)CNC(=O)CCN2` [Compound 54, 8-methoxy-2,3,5,6-tetrahydrobenzo[b][1,5]diazocin-4(1H)-one]: the “Insulin secretion” value was 1 (1: 90-110% of control).

As for `O=C(CN1CCC(=O)N(C2CC2)Cc2cc(F)ccc21)c1ccc2c(c1)OCCO2` [Compound 55, 5-cyclopropyl-1-(2-(2,3-dihydrobenzo[b][1,4]dioxin-6-yl)-2-oxoethyl)-8-fluoro-2,3,5,6-tetrahydrobenzo[b][1,5]diazocin-4(1H)-one], the “Insulin secretion” value is listed as 2 (2: 110-120% of control).
